Legend:
[1] = target: Casein kinase I isoform gamma-3 (Homo sapiens) (UniProt Q9Y6M4); settings: Compound concentration 1000.0 nM
[2] = target: Protein kinase C eta type (Homo sapiens) (UniProt P24723); settings: Compound concentration 1000.0 nM
[3] = target: Serine/threonine-protein kinase Sgk2 (Homo sapiens) (UniProt Q9HBY8); settings: Compound concentration 1000.0 nM
[4] = target: Angiopoietin-1 receptor (Homo sapiens) (UniProt Q02763); settings: Compound concentration 1000.0 nM
[5] = target: Dual specificity protein kinase TTK (Homo sapiens) (UniProt P33981); settings: Compound concentration 1000.0 nM
[6] = target: 5-hydroxytryptamine receptor 2C (Homo sapiens) (UniProt P28335); settings: Compound concentration 10.0 uM
[7] = test system: Epidermal growth factor receptor (Homo sapiens), P00533 [UNDEFINED MUTATION]; settings: Compound concentration 1000.0 nM
Sequence of Epidermal growth factor receptor (Homo sapiens), P00533 [UNDEFINED MUTATION] (P00533 whole entry, looked up, change not shown): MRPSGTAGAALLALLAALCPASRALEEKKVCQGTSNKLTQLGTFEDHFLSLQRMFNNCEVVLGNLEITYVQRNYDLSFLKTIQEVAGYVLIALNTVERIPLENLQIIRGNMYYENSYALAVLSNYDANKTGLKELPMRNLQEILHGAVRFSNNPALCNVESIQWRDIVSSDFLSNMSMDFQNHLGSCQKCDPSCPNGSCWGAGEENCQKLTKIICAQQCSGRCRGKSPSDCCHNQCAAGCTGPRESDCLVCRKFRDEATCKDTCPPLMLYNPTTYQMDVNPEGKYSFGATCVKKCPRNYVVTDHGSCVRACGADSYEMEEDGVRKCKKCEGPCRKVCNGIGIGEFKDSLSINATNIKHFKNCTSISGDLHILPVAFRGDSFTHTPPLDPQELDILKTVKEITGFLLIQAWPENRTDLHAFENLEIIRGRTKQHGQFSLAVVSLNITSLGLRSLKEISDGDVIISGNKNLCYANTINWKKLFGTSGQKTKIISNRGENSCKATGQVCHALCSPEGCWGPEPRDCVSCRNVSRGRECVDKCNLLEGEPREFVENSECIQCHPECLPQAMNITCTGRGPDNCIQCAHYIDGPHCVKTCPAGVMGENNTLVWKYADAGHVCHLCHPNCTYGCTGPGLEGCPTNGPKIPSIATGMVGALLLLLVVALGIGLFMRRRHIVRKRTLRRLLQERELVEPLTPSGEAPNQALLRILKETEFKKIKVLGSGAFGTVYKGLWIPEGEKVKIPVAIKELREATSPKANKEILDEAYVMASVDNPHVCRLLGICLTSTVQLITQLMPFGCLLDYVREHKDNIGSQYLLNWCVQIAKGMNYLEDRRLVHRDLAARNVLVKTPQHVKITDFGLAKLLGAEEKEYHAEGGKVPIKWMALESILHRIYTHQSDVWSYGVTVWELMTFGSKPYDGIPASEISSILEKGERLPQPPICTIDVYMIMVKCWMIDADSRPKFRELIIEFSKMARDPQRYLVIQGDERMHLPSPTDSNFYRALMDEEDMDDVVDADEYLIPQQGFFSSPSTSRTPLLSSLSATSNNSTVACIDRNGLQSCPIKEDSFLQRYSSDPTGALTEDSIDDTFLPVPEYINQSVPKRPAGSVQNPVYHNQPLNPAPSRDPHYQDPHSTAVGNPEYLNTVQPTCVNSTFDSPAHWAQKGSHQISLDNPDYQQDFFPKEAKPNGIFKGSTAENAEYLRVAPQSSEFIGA

[8] = target: Testis-specific serine/threonine-protein kinase 1 (Homo sapiens) (UniProt Q9BXA7); settings: Compound concentration 1000.0 nM
[9] = target: RAC-beta serine/threonine-protein kinase (Homo sapiens) (UniProt P31751); settings: Compound concentration 1000.0 nM
[10] = test system: Mast/stem cell growth factor receptor Kit (Homo sapiens), P10721 [V559D]; settings: Compound concentration 1000.0 nM
[11] = target: Calcium/calmodulin-dependent protein kinase type II subunit alpha (Homo sapiens) (UniProt Q9UQM7); settings: Compound concentration 1000.0 nM
[12] = target: Ephrin type-A receptor 5 (Homo sapiens) (UniProt P54756); settings: Compound concentration 1000.0 nM
Sequence of Ephrin type-A receptor 5 (Homo sapiens) (P54756 whole entry): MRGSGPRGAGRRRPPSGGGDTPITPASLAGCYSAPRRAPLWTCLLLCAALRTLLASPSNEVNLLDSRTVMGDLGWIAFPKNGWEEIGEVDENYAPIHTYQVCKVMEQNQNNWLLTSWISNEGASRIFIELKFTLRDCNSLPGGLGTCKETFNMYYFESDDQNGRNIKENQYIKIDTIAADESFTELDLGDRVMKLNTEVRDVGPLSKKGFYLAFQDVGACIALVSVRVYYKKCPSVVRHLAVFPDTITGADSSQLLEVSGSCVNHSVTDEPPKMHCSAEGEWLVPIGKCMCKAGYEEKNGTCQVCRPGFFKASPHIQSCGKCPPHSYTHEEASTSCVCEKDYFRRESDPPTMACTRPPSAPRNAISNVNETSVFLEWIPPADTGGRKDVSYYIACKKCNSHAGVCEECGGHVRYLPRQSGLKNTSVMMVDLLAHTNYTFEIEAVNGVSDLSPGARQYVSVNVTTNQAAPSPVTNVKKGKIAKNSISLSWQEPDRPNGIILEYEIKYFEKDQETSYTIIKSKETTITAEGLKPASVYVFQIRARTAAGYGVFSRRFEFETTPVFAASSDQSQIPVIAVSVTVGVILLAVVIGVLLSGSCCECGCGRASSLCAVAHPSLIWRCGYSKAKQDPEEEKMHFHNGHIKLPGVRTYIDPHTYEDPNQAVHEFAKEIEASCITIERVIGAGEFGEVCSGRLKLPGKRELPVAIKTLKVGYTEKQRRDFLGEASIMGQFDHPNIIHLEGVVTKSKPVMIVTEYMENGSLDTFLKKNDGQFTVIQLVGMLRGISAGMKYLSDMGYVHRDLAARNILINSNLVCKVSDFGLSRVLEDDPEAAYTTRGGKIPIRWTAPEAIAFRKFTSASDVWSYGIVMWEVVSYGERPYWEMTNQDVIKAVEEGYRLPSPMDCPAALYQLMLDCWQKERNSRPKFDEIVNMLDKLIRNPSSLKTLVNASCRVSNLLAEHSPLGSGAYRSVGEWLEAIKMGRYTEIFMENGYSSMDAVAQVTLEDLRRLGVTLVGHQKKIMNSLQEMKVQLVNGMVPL

[13] = target: Serine/threonine-protein kinase 17B (Homo sapiens) (UniProt O94768); settings: Compound concentration 1000.0 nM
[14] = test system: ALK tyrosine kinase receptor (Homo sapiens), Q9UM73 [C1156Y]; settings: Compound concentration 1000.0 nM
[15] = test system: Phosphatidylinositol 4,5-bisphosphate 3-kinase catalytic subunit alpha isoform (Homo sapiens), P42336 [M1043I]; settings: Compound concentration 1000.0 nM
[16] = target: Ribosomal protein S6 kinase alpha-3 (Homo sapiens) (UniProt P51812); settings: Compound concentration 1000.0 nM
[17] = target: SRSF protein kinase 3 (Homo sapiens) (UniProt Q9UPE1); settings: Compound concentration 1000.0 nM
[18] = target: Fibroblast growth factor receptor 1 (Homo sapiens) (UniProt P11362); settings: Compound concentration 1000.0 nM
[19] = target: 5-hydroxytryptamine receptor 1B (Homo sapiens) (UniProt P28222); settings: Compound concentration 10.0 uM
[20] = target: Macrophage colony-stimulating factor 1 receptor (Homo sapiens) (UniProt P07333); settings: Compound concentration 1000.0 nM
[21] = target: Mitogen-activated protein kinase 8 (Homo sapiens) (UniProt P45983); settings: Compound concentration 1000.0 nM
[22] = target: T1, 5-hydroxytryptamine receptor 1A (Homo sapiens) (UniProt P08908); settings: Compound concentration 10.0 uM
T1 sequence (whole entry): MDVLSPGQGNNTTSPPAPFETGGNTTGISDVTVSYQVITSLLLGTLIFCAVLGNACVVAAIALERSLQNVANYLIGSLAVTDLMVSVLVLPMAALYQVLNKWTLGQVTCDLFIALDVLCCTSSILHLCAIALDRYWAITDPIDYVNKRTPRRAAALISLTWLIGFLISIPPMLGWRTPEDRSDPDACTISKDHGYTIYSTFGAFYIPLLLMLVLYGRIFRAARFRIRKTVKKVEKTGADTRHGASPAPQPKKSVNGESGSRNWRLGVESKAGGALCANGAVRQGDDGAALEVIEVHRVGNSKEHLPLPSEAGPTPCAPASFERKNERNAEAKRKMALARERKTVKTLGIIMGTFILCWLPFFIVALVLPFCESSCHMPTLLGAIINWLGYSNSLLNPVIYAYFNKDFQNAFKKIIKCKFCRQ

[23] = target: Insulin-like growth factor 1 receptor (Homo sapiens) (UniProt P08069); settings: Compound concentration 1000.0 nM
[24] = target: Serine/threonine-protein kinase D1 (Homo sapiens) (UniProt Q15139); settings: Compound concentration 1000.0 nM
[25] = target: Tyrosine-protein kinase BTK (Homo sapiens) (UniProt Q06187); settings: Compound concentration 1000.0 nM
[26] = target: Serine/threonine-protein kinase N1 (Homo sapiens) (UniProt Q16512); settings: Compound concentration 1000.0 nM
Sequence of Serine/threonine-protein kinase N1 (Homo sapiens) (Q16512 2-942 limits assumed): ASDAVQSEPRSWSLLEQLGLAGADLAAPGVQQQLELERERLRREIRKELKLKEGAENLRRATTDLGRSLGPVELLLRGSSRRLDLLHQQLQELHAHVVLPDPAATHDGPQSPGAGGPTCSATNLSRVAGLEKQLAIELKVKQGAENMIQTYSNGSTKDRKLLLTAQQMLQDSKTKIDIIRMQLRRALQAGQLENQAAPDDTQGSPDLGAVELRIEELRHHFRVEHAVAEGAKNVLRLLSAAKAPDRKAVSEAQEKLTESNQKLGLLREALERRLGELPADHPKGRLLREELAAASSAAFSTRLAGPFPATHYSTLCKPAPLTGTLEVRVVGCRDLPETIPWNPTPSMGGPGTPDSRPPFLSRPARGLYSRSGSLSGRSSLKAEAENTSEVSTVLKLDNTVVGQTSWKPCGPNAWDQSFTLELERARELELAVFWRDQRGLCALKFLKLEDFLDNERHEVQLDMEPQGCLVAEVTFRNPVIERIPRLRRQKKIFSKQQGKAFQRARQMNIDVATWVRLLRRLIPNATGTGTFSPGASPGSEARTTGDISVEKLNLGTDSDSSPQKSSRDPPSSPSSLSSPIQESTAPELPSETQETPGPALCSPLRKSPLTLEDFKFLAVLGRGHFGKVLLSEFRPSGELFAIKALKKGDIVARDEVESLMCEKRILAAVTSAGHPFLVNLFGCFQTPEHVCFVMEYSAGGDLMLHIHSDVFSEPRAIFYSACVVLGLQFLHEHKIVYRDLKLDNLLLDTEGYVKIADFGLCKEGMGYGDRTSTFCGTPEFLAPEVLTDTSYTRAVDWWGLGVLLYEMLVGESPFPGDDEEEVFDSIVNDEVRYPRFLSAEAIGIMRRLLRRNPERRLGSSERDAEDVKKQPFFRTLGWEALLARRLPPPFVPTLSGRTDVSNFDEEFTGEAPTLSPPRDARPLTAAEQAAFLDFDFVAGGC

[27] = target: Inhibitor of nuclear factor kappa-B kinase subunit epsilon (Homo sapiens) (UniProt Q14164); settings: Compound concentration 1000.0 nM
[28] = test system: Phosphatidylinositol 4,5-bisphosphate 3-kinase catalytic subunit alpha isoform (Homo sapiens), P42336 [H1047Y]; settings: Compound concentration 1000.0 nM
[29] = target: Serine/threonine-protein kinase PRP4 homolog (Homo sapiens) (UniProt Q13523); settings: Compound concentration 1000.0 nM
[30] = target: Platelet-derived growth factor receptor beta (Homo sapiens) (UniProt P09619); settings: Compound concentration 1000.0 nM
[31] = test system: Proto-oncogene tyrosine-protein kinase receptor Ret (Homo sapiens), P07949 [V804L]; settings: Compound concentration 1000.0 nM
Sequence of Proto-oncogene tyrosine-protein kinase receptor Ret (Homo sapiens), P07949 [V804L] (P07949 whole entry V804L): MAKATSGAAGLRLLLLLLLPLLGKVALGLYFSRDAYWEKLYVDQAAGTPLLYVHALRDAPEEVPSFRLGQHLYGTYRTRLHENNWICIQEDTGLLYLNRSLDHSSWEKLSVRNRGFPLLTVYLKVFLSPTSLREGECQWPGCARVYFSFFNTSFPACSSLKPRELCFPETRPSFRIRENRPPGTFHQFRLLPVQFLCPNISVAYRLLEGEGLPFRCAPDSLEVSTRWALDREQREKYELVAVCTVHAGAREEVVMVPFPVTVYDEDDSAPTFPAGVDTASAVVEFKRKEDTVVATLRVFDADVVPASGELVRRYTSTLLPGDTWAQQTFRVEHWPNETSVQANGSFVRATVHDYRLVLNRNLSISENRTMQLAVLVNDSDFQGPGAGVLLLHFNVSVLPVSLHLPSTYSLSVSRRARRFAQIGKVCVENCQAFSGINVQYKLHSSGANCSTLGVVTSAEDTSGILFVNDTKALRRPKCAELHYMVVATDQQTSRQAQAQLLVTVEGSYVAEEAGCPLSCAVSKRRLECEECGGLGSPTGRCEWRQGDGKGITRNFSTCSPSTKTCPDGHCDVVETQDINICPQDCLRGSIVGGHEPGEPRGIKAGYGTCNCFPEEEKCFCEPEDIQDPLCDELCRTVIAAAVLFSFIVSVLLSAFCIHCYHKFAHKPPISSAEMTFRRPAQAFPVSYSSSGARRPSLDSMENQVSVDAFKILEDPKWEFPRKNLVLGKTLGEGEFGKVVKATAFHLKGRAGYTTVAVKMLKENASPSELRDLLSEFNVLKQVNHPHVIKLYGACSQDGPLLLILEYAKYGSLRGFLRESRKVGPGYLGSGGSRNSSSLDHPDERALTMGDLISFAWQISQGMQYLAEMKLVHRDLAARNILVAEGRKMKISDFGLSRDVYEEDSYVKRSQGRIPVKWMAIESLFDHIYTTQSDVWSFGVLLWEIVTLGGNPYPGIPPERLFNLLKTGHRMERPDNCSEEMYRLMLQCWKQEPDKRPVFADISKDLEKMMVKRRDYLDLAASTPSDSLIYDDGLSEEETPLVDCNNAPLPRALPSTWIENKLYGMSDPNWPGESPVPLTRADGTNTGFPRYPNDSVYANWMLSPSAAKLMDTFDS

[32] = target: Sigma non-opioid intracellular receptor 1 (Homo sapiens) (UniProt Q99720); settings: Compound concentration 10.0 uM
Sequence of Sigma non-opioid intracellular receptor 1 (Homo sapiens) (Q99720 whole entry): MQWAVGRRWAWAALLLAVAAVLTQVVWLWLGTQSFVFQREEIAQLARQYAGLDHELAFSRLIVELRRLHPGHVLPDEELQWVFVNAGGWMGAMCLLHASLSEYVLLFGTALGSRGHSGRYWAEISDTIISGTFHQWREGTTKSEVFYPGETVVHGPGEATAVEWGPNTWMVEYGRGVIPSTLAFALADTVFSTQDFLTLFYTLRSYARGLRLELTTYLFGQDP

[33] = target: Homeodomain-interacting protein kinase 2 (Homo sapiens) (UniProt Q9H2X6); settings: Compound concentration 1000.0 nM
[34] = target: Serine/threonine-protein kinase MARK2 (Homo sapiens) (UniProt Q7KZI7); settings: Compound concentration 1000.0 nM
[35] = test system: Proto-oncogene tyrosine-protein kinase receptor Ret (Homo sapiens), P07949 [V804M]; settings: Compound concentration 1000.0 nM
Sequence of Proto-oncogene tyrosine-protein kinase receptor Ret (Homo sapiens), P07949 [V804M] (P07949 whole entry V804M): as the sequence (P07949 whole entry V804L) above, with L804M counted along it

[36] = target: Mast/stem cell growth factor receptor Kit (Homo sapiens) (UniProt P10721); settings: Compound concentration 1000.0 nM
[37] = target: Protein kinase C theta type (Homo sapiens) (UniProt Q04759); settings: Compound concentration 1000.0 nM
[38] = target: Tyrosine-protein kinase SYK (Homo sapiens) (UniProt P43405); settings: Compound concentration 1000.0 nM
[39] = target: MAP kinase-activated protein kinase 5 (Homo sapiens) (UniProt Q8IW41); settings: Compound concentration 1000.0 nM
Sequence of MAP kinase-activated protein kinase 5 (Homo sapiens) (Q8IW41 whole entry): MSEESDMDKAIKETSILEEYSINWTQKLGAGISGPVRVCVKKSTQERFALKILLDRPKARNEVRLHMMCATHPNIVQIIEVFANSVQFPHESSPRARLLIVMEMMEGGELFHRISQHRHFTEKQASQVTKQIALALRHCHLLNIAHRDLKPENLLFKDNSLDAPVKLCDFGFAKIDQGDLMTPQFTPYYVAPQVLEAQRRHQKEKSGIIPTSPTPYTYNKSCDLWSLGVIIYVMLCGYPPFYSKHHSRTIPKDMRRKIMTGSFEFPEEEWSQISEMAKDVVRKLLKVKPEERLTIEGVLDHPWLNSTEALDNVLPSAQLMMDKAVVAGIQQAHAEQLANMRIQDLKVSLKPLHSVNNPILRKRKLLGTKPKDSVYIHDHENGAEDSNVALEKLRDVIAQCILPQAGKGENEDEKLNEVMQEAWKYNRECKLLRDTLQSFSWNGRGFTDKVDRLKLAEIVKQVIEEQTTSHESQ

O=C(O)[C@@H]1[C@@H](Cn2nnc3ccccc3c2=O)CC[C@H]1C(=O)c1ccc(OCCC2CCOCC2)cc1 [BAY-694]
inactive: residual activity [1] 100% | residual activity [2] 100% | residual activity [3] 79% | residual activity [4] 100% | residual activity [5] 89% | inhibition [6] 21% | residual activity [7] 100% | residual activity [8] 100% | residual activity [9] 100% | residual activity [10] 100% | residual activity [11] 100% | residual activity [12] 94% | residual activity [13] 99% | residual activity [14] 100% | residual activity [15] 100% | residual activity [16] 85% | residual activity [17] 100% | residual activity [18] 100% | inhibition [19] 8.05% | residual activity [20] 94% | residual activity [21] 100% | inhibition [22] 7.62% | residual activity [23] 100% | residual activity [24] 100% | residual activity [25] 100% | residual activity [26] 97% | residual activity [27] 100% | residual activity [28] 94% | residual activity [29] 80% | residual activity [30] 100% | residual activity [31] 94% | inhibition [32] 29.3% | residual activity [33] 100% | residual activity [34] 100% | residual activity [35] 100% | residual activity [36] 100% | residual activity [37] 85% | residual activity [38] 100% | residual activity [39] 76%

O=C(O)[C@H]1[C@H](Cn2nnc3ccccc3c2=O)CC[C@@H]1C(=O)c1ccc(OCCC2CCOCC2)cc1 [BAY-7598]
inactive: residual activity [1] 100% | residual activity [2] 89% | residual activity [3] 92% | residual activity [4] 86% | residual activity [5] 83% | inhibition [6] 22.4% | residual activity [7] 100% | residual activity [8] 73% | residual activity [9] 88% | residual activity [10] 100% | residual activity [11] 100% | residual activity [12] 100% | residual activity [13] 100% | residual activity [14] 100% | residual activity [15] 100% | residual activity [16] 83% | residual activity [17] 84% | residual activity [18] 98% | inhibition [19] 11.5% | residual activity [20] 100% | residual activity [21] 72% | inhibition [22] -0.18% | residual activity [23] 100% | residual activity [24] 85% | residual activity [25] 100% | residual activity [26] 88% | residual activity [27] 90% | residual activity [28] 88% | residual activity [29] 67% | residual activity [30] 88% | residual activity [31] 77% | inhibition [32] 6.09% | residual activity [33] 100% | residual activity [34] 100% | residual activity [35] 96% | residual activity [36] 65% | residual activity [37] 80% | residual activity [38] 76% | residual activity [39] 99%

Source: ChEMBL document CHEMBL4507264, “Data for DCP probe BAY-7598” (2021)
